According to patent EP2741758B1, “POLYPHENOLIC FORMULATION, ITS PREPARATION AND USE” (Uniwersytet Medyczny W Lodzi, priority 2011, dated 2013):

Tested on: HepG2, HMEC-1, A549, Caco-2, 3T3
Assay: Multiparameter automated HCS cytotoxicity test "Cell health assay"
Type: cell-based
Set-up: scale not given here
Conditions: for cumulative cytotoxicity index: points over 5 cell lines; for cumulative cytotoxicity index, Total: sum over the five concentrations
Method: Thanks to the use of three fluorescent dyes (MitoTracker - Invitrogen, YO-[…], Hoechst 33 342 - Sigma), assessment of the impact of the studied extracts on the size, and morphology of the nucleus, cytoplasmic membrane integrity, and mitochondrial activity was made. Tests were performed on 96-well plates using 5 cell lines (HepG2, HMEC-1, A549, Caco-2, 3T3). The measurements were taken using automatic pipetting station JANUS by Perkin Elmer. The formulation was examined at five concentrations, measurements were taken in duplicates in 5 independent series. Based on the raw experimental data, statistical analysis of significance of observed differences in average values for three selected measurement parameters, measuring the fluorescence intensity, and dyed surface in cells, using fluorescent dyes, was made. The selected parameters illustrate: • 1. Surface of the cell nucleus (Hoechst (Sigma) • 2. Accumulation of YO-[…] dye (Invitrogen), indicating cytoplasmic membrane damage • 3. Mitochondrial potential (MitoTracker - Invitrogen) Then, the statistically significant differences for each tested concentration of each substance, which indicate morphological, and functional changes in cells, showing cytotoxic activity, were assigned with point values as shown in the diagram of assessment of the observed effects below. Differences subject to the scoring: • 1. Decrease, or increase in nucleus surface • 2. Increase in the accumulation of YO-[…] • 3. Decrease in the mitochondrial potential The following Table 13 illustrates the assigned point values given to the studied formulations in "Cell health assay" test. Table 13. Point values adopted in "Cell health assay" test. [table]

SMILES	cumulative cytotoxicity index (5 µg/ml)	cumulative cytotoxicity index (10 µg/ml)	cumulative cytotoxicity index (30 µg/ml)	cumulative cytotoxicity index (40 µg/ml)	cumulative cytotoxicity index (50 µg/ml)	cumulative cytotoxicity index, Total
O=c1c(O)c(-c2ccc(O)cc2)oc2cc(O)cc(O)c12 [Kaempferol]	2.6	1.4	8.4	8.4	6.2	27.0
C[C@@H]1O[C@@H](O[C@H]2[C@H](Oc3cc(O)c4c(c3)O[C@H](c3ccc(O)cc3)CC4=O)O[C@H](CO)[C@@H](O)[C@@H]2O)[C@H](O)[C@H](O)[C@H]1O [Naringin]	0.0	0.0	0.2	1.4	0.2	1.8
